Assay results from ChEMBL document CHEMBL1153685, “Design, synthesis, and evaluation of orally active fibrinogen inhibitors” (Bioorg Med Chem Lett, 1997).

Tests used:
Type in all cases: functional
Homo sapiens = species: Homo sapiens; assay: The compound was tested in vitro for its anti-platelet activity against human platelets in presence of ADP
Canis familiaris [1] = assay: Tested ex vivo for its inhibitory activity at 8 hr against dogs after oral administration of 10 mg/Kg dose to evaluate bioavailability; conditions: Canis lupus familiaris
Rattus norvegicus [2] = assay: Tested ex vivo for its inhibitory activity at 0.5 hr against rats after oral administration of 3.2 mg/Kg dose to evaluate bioavailability
Rattus norvegicus [3] = assay: Tested ex vivo for its inhibitory activity at 1 h against rats after oral administration of 3.2 mg/Kg dose to evaluate bioavailability
Canis familiaris [4] = assay: Tested ex vivo for its inhibitory activity at 3 hr against dogs after oral administration of 3.2 mg/Kg dose to evaluate bioavailability; conditions: Canis lupus familiaris
Cavia porcellus [5] = assay: Tested ex vivo for its inhibitory activity at 2 hr against guinea pig after oral administration of 0.32 mg/Kg dose to evaluate bioavailability
Cavia porcellus [6] = assay: Tested ex vivo for its inhibitory activity at 1 hr against guinea pig after oral administration of 1 mg/Kg dose to evaluate bioavailability
Canis familiaris [7] = assay: Tested ex vivo for its inhibitory activity at 3 hr against dogs after oral administration of 10 mg/Kg dose to evaluate bioavailability; conditions: Canis lupus familiaris
Canis familiaris [8] = assay: Tested ex vivo for its inhibitory activity at 1 hr against dogs after oral administration of 3.2 mg/Kg dose to evaluate bioavailability; conditions: Canis lupus familiaris
Canis familiaris [9] = assay: Tested ex vivo for its inhibitory activity at 6 hr against dogs after oral administration of 3.2 mg/Kg dose to evaluate bioavailability; conditions: Canis lupus familiaris
[10] = The ratio of anti-platelet activity against dog platelets to that of human platelets was determined
Canis familiaris [11] = assay: Tested ex vivo for its inhibitory activity at 6 hr against dogs after oral administration of 10 mg/Kg dose to evaluate bioavailability; conditions: Canis lupus familiaris
Canis familiaris [12] = assay: Tested ex vivo for its inhibitory activity at 1 hr against dogs after oral administration of 1 mg/Kg dose to evaluate bioavailability; conditions: Canis lupus familiaris
Cavia porcellus [13] = assay: Tested ex vivo for its inhibitory activity at 2 hr against guinea pig after oral administration of 1 mg/Kg dose to evaluate bioavailability
Canis familiaris [14] = species: Canis familiaris; assay: The compound was tested in vitro for its anti-platelet activity against dog platelets in presence of ADP; conditions: Canis lupus familiaris
Canis familiaris [15] = assay: Tested ex vivo for its inhibitory activity at 8 hr against dogs after oral administration of 3.2 mg/Kg dose to evaluate bioavailability; conditions: Canis lupus familiaris
Rattus norvegicus [16] = assay: Tested ex vivo for its inhibitory activity at 2 h against rats after oral administration of 3.2 mg/Kg dose to evaluate bioavailability
Cavia porcellus [17] = assay: Tested ex vivo for its inhibitory activity at 3 hr against guinea pig after oral administration of 1 mg/Kg dose to evaluate bioavailability
Cavia porcellus [18] = assay: Tested ex vivo for its inhibitory activity at 1 hr against guinea pig after oral administration of 0.32 mg/Kg dose to evaluate bioavailability
Cavia porcellus [19] = assay: Tested ex vivo for its inhibitory activity at 1 hr against guinea pig after oral administration of 0.1 mg/Kg dose to evaluate bioavailability
Canis familiaris [20] = assay: Tested ex vivo for its inhibitory activity at 3 hr against dogs after oral administration of 1 mg/Kg dose to evaluate bioavailability; conditions: Canis lupus familiaris
Rattus norvegicus [21] = species: Rattus norvegicus; assay: The compound was tested for its stability in intestinal juice of rats after 5 h
Rattus norvegicus [22] = species: Rattus norvegicus; assay: The compound was tested for its stability in intestinal juice of rats after 2 h
Rattus norvegicus [23] = species: Rattus norvegicus; assay: The compound was tested for its stability in intestinal juice of rats after 0 h
Canis familiaris [24] = assay: Tested ex vivo for its inhibitory activity at 1 hr against dogs after oral administration of 10 mg/Kg dose to evaluate bioavailability; conditions: Canis lupus familiaris
Cavia porcellus [25] = assay: Tested ex vivo for its inhibitory activity at 3 hr against guinea pig after oral administration of 3.2 mg/Kg dose to evaluate bioavailability
Rattus norvegicus [26] = assay: Tested ex vivo for its inhibitory activity at 1 hr against rats after oral administration of 10 mg/Kg dose to evaluate bioavailability
Rattus norvegicus [27] = assay: Tested ex vivo for its inhibitory activity at 0.5 hr against rats after oral administration of 10 mg/Kg dose to evaluate bioavailability
Rattus norvegicus [28] = species: Rattus norvegicus; assay: Tested for its stability in intestinal juice of rats after 0 h
Rattus norvegicus [29] = assay: Tested ex vivo for its inhibitory activity at 0.5 hr against rats after oral administration of 20 mg/Kg dose to evaluate bioavailability
Rattus norvegicus [30] = assay: Tested ex vivo for its inhibitory activity at 1 hr against rats after oral administration of 20 mg/Kg dose to evaluate bioavailability
Canis familiaris [31] = assay: Tested ex vivo for its inhibitory activity at 1 hr against dogs after oral administration of 32 mg/Kg dose to evaluate bioavailability; conditions: Canis lupus familiaris
Rattus norvegicus [32] = species: Rattus norvegicus; assay: The compound was tested for its stability in intestinal juice of rats after 7 h
Canis familiaris [33] = assay: Tested ex vivo for its inhibitory activity at 3 hr against dogs after oral administration of 32 mg/Kg dose to evaluate bioavailability; conditions: Canis lupus familiaris
Canis familiaris [34] = assay: Tested ex vivo for its inhibitory activity at 2 hr against dogs after oral administration of 3.2 mg/Kg dose to evaluate bioavailability; conditions: Canis lupus familiaris
Canis familiaris [35] = assay: Tested ex vivo for its inhibitory activity at 2 h against dogs after oral administration of 32 mg/Kg dose to evaluate bioavailability; conditions: Canis lupus familiaris
Cavia porcellus [36] = assay: Tested ex vivo for its inhibitory activity at 1 hr against guinea pig after oral administration of 3.2 mg/Kg dose to evaluate bioavailability
Rattus norvegicus [37] = species: Rattus norvegicus; assay: Tested for its stability in intestinal juice of rats after 5 h
Rattus norvegicus [38] = species: Rattus norvegicus; assay: Tested for its stability in intestinal juice of rats after 2 h
Rattus norvegicus [39] = assay: Tested ex vivo for its inhibitory activity at 2 hr against rats after oral administration of 10 mg/Kg dose to evaluate bioavailability
Cavia porcellus [40] = assay: Tested ex vivo for its inhibitory activity at 6 hr against guinea pig after oral administration of 3.2 mg/Kg dose to evaluate bioavailability
Rattus norvegicus [41] = assay: Tested ex vivo for its inhibitory activity at 2 hr against rats after oral administration of 20 mg/Kg dose to evaluate bioavailability

Compound: CC(C)Oc1ccc(CCNC(=O)[C@H](CC(=O)O)NC(=O)CCCOc2ccc(C(=N)N)cc2)cc1
- IC50 (Homo sapiens): 370 nM

Compound: CCOc1ccc(CCNC(=O)[C@H](CC(=O)O)NC(=O)CCCOc2ccc(C(=N)N)cc2)cc1
- IC50 (Homo sapiens): 340 nM

Compound: CC(C)[C@H](NC(=O)[C@H](CC(=O)O)NC(=O)CCCOc1ccc(C(=N)N)cc1)C(=O)N1CCS(=O)(=O)CC1
- inhibition in vivo at 10 mg/kg (Canis familiaris [1]): 45%
- IC50 (Homo sapiens): 30 nM
- inhibition in vivo at 3.2 mg/kg (Rattus norvegicus [2]): 76%
- inhibition in vivo at 3.2 mg/kg (Rattus norvegicus [3]): 97%
- inhibition in vivo at 3.2 mg/kg (Canis familiaris [4]): 65%
- inhibition in vivo at 0.32 mg/kg (Cavia porcellus [5]): 50%
- inhibition in vivo at 1 mg/kg (Cavia porcellus [6]): 100%
- inhibition in vivo at 10 mg/kg (Canis familiaris [7]): 80%
- inhibition in vivo at 3.2 mg/kg (Canis familiaris [8]): 85%
- inhibition in vivo at 3.2 mg/kg (Canis familiaris [9]): 46%
- Ratio [10]: 3.7
- inhibition in vivo at 10 mg/kg (Canis familiaris [11]): 65%
- inhibition in vivo at 1 mg/kg (Canis familiaris [12]): 40%
- inhibition in vivo at 1 mg/kg (Cavia porcellus [13]): 59%
- IC50 (Canis familiaris [14]): 110 nM
- inhibition in vivo at 3.2 mg/kg (Canis familiaris [15]): 0%
- inhibition in vivo at 3.2 mg/kg (Rattus norvegicus [16]): 44%
- inhibition in vivo at 1 mg/kg (Cavia porcellus [17]): 21%
- inhibition in vivo at 0.32 mg/kg (Cavia porcellus [18]): 69%
- inhibition in vivo at 0.1 mg/kg (Cavia porcellus [19]): 49%
- inhibition in vivo at 1 mg/kg (Canis familiaris [20]): 11%

Compound: COc1ccc(CCNC(=O)[C@H](CC(=O)O)NC(=O)CCCOc2ccc(C(=N)N)cc2)cc1
- Remains (Rattus norvegicus [21]): 105.7%
- IC50 (Homo sapiens): 440 nM
- Remains (Rattus norvegicus [22]): 100.5%
- Remains (Rattus norvegicus [23]): 100%

Compound: CC(C)[C@H](NC(=O)[C@H](CC(=O)O)NC(=O)CCCOc1ccc(C(=N)N)cc1)C(=O)NC1CCCCC1
- IC50 (Homo sapiens): 210 nM

Compound: CC(C)C(C)NC(=O)[C@H](CC(=O)O)NC(=O)CCCOc1ccc(C(=N)N)cc1 (stereo not given in full)
- IC50 (Homo sapiens): 1400 nM

Compound: CCN(CC)C(=O)[C@@H](NC(=O)[C@H](CC(=O)O)NC(=O)CCCOc1ccc(C(=N)N)cc1)C(C)C
- IC50 (Homo sapiens): 250 nM

Compound: CC(C)[C@H](NC(=O)[C@H](CC(=O)O)NC(=O)CCCOc1ccc(C(=N)N)cc1)C(=O)N1CCOCC1
- IC50 (Homo sapiens): 79 nM
- inhibition in vivo at 3.2 mg/kg (Rattus norvegicus [2]): 95%
- inhibition in vivo at 3.2 mg/kg (Rattus norvegicus [3]): 97%
- inhibition in vivo at 3.2 mg/kg (Canis familiaris [4]): 45%
- inhibition in vivo at 10 mg/kg (Canis familiaris [7]): 75%
- inhibition in vivo at 3.2 mg/kg (Canis familiaris [8]): 53%
- inhibition in vivo at 3.2 mg/kg (Canis familiaris [9]): 20%
- Ratio [10]: 1.8
- inhibition in vivo at 10 mg/kg (Canis familiaris [11]): 59%
- inhibition in vivo at 10 mg/kg (Canis familiaris [24]): 96%
- IC50 (Canis familiaris [14]): 140 nM
- inhibition in vivo at 3.2 mg/kg (Rattus norvegicus [16]): 95%

Compound: COc1ccc(CCNC(=O)[C@H](CC(=O)O)NC(=O)CCCOc2ccc(C(=N)N)cc2)cc1OC
- IC50 (Homo sapiens): 540 nM

Compound: CC(C)[C@H](NC(=O)[C@H](CC(=O)O)NC(=O)CCCOc1ccc(C(=N)N)cc1)C(N)=O
- Remains (Rattus norvegicus [21]): 107.3%
- IC50 (Homo sapiens): 670 nM
- Remains (Rattus norvegicus [22]): 105.6%
- Remains (Rattus norvegicus [23]): 100%

Compound: CC(C)[C@H](NC(=O)[C@H](CC(=O)O)NC(=O)CCCOc1ccc(C(=N)N)cc1)C(=O)O
- Remains (Rattus norvegicus [21]): 25.6%
- inhibition in vivo at 3.2 mg/kg (Cavia porcellus [25]): 64%
- inhibition in vivo at 10 mg/kg (Rattus norvegicus [26]): 18%
- IC50 (Homo sapiens): 100 nM
- inhibition in vivo at 10 mg/kg (Rattus norvegicus [27]): 24%
- Remains (Rattus norvegicus [28]): 100%
- Remains (Rattus norvegicus [22]): 61.3%
- inhibition in vivo at 20 mg/kg (Rattus norvegicus [29]): 45%
- inhibition in vivo at 20 mg/kg (Rattus norvegicus [30]): 33%
- inhibition in vivo at 32 mg/kg (Canis familiaris [31]): 58%
- Remains (Rattus norvegicus [32]): 19.2%
- inhibition in vivo at 32 mg/kg (Canis familiaris [33]): 18%
- inhibition in vivo at 3.2 mg/kg (Canis familiaris [34]): 30%
- inhibition in vivo at 3.2 mg/kg (Canis familiaris [4]): 10%
- inhibition in vivo at 1 mg/kg (Cavia porcellus [6]): 99%
- inhibition in vivo at 3.2 mg/kg (Canis familiaris [8]): 19%
- inhibition in vivo at 32 mg/kg (Canis familiaris [35]): 29%
- inhibition in vivo at 3.2 mg/kg (Cavia porcellus [36]): 100%
- Remains (Rattus norvegicus [37]): 45.1%
- IC50 (Canis familiaris [14]): 380 nM
- Remains (Rattus norvegicus [38]): 63.8%
- Remains (Rattus norvegicus [23]): 100%
- inhibition in vivo at 10 mg/kg (Rattus norvegicus [39]): 4%
- inhibition in vivo at 1 mg/kg (Cavia porcellus [17]): 34%
- inhibition in vivo at 3.2 mg/kg (Cavia porcellus [40]): 19%
- inhibition in vivo at 0.32 mg/kg (Cavia porcellus [18]): 70%
- inhibition in vivo at 20 mg/kg (Rattus norvegicus [41]): 20%

Compound: CC(C)[C@H](NC(=O)[C@H](CC(=O)O)NC(=O)CCCOc1ccc(C(=N)N)cc1)C(=O)N1CCN(C)CC1
- IC50 (Homo sapiens): 180 nM

Compound: CC(C)CNC(=O)[C@H](CC(=O)O)NC(=O)CCCOc1ccc(C(=N)N)cc1
- Remains (Rattus norvegicus [21]): 83.6%
- IC50 (Homo sapiens): 1200 nM
- Remains (Rattus norvegicus [22]): 80.4%
- Remains (Rattus norvegicus [32]): 86.2%
- Remains (Rattus norvegicus [23]): 100%
